Results on 17 molecules are retold here after PMC6864762, “Angiotensin-I-Converting Enzyme Inhibitory Activity of Coumarins from Angelica decursiva” (Molecules, 2019).

For assay [1], the system named is ACE. Also noted: method as in earlier work. Conditions: ref 25 (Hyun et al.); cited from earlier work.
For assay [2], the target named is T1, ACE (Oryctolagus cuniculus, UniProt P12822).
T1 sequence (P12822 34-1310): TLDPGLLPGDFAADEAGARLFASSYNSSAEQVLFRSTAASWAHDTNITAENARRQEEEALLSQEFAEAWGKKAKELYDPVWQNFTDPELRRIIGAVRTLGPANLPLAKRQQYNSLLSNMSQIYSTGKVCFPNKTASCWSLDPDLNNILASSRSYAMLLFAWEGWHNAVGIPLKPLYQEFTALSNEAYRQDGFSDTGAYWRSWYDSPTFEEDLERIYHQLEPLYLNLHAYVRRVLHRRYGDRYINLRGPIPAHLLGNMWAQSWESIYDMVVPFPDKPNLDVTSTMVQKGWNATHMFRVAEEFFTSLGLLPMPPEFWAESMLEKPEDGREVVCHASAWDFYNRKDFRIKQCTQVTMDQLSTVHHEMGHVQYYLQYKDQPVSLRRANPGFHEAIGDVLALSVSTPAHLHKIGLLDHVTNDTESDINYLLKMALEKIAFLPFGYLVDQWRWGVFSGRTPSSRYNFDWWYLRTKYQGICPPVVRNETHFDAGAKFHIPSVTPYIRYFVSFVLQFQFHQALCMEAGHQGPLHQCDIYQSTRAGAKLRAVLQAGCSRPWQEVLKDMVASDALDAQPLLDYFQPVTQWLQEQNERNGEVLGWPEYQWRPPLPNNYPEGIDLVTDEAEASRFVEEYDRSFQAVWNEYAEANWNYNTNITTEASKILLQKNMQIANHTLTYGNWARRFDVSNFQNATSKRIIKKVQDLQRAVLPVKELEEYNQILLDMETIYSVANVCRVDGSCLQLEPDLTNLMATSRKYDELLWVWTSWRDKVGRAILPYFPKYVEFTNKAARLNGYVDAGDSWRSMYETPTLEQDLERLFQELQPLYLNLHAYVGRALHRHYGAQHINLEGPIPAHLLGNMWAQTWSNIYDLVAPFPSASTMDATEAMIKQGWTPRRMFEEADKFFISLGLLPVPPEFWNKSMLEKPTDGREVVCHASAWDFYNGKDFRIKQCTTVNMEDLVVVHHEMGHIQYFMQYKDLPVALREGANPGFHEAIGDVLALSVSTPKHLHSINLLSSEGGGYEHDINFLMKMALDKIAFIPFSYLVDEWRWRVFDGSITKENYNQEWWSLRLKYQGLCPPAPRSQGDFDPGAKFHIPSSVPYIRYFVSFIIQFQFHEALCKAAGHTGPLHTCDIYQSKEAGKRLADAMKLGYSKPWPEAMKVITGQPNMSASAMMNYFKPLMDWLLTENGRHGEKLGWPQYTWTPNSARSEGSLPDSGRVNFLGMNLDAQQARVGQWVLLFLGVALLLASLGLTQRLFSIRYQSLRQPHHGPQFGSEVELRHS
Description: ACE inhibitory activity assay with FAPGG as substrate. Conditions: for Inhibitory effect on ACE (in words): structure–activity discussion of Table 2.
Description: The ACE inhibitory activity of 18 compounds was conducted according to Hyun et al. [8] and modified to use FAPGG as the substrate. In brief, FAPGG (0.5 mM) and various concentrations of the samples were completely dissolved in 50 mM Tris–HCl buffer (pH 7.5).

Assay [3] concerns the target T1, ACE. Kind of assay: Enzyme kinetics of ACE inhibition (Lineweaver–Burk and secondary plots). Format: biochemical, rabbit. Also noted: ACE (1 Unit, rabbit lung); purchased Sigma Chemical Company (St Louis, MO, USA); host or cells: rabbit lung (tissue-derived). Conditions: for Type of Inhibition: Lineweaver–Burk plot and secondary plot, FAPGG 0.1–0.5 mM; for Ki: from secondary plot of slope (Km,app/Vmax,app) versus inhibitor. On the procedure: All chemicals and solvents used for column chromatography were of reagent grade and purchased from commercial sources, unless otherwise stated.
To determine the inhibition mechanisms, ACE inhibition was evaluated by monitoring the effects of different concentrations of substrate […]. The reaction mixture consisted of different concentrations of FAPGG (0.1–0.5 mM), as the substrate, and ACE in 50 mM Tris–HCl buffer. Several concentrations of each sample were added to the reaction mixture. The tested concentrations of coumarins are as follows: 12 (0, 2.5, 5, and 10 µM); 13 (0, 2.5, 5, and 10 µM); 15 (0, 1.28, 2.56, and 5.12 µM). Inhibition constants (Ki) were determined by interpretation of the secondary plots from Lineweaver–Burk plot.

Each structure is given as a SMILES string.

As a reminder, the IC50 is the concentration that gives 50% inhibition.

As to `CC(C)(O[C@@H]1O[C@H](CO)[C@@H](O)[C@H](O)[C@H]1O)[C@H]1Cc2cc3ccc(=O)oc3cc2O1` [Compound 1, nodakenin], the “ACE inhibitory activity (in words)” value in assay [1] is “promising ACE inhibitory activity”. In assay [2], the IC50 is 112.5 ± 0.71 µM.
With `CC(C)(O)[C@H]1Cc2cc3ccc(=O)oc3cc2O1` [Compound 2, nodakenetin], 102.3 ± 0.29 µM corresponded to half-maximal inhibition in assay [2] (IC50).
In assay [2], `CC(C)(OC1OC(CO)C(O)C(O)C1O)C1Cc2cc3ccc(=O)oc3c(O)c2O1` (stereo not drawn) [Compound 3, isorutarine] returned an IC50 of 68.36 ± 0.27 µM.
For `O=c1ccc2ccc(O)cc2o1` [Compound 4, umbelliferone], in assay [1], the “ACE inhibitory activity (in words)” value is “promising ACE inhibitory activity”.
For the molecule `O=C(O)c1cc2ccc(=O)oc2cc1O` [Compound 5, umbelliferone 6-carboxylic acid], the “ACE inhibitory activity (in words)” value in assay [1] was “promising ACE inhibitory activity”. In addition, in assay [2], the IC50 turned out to be 156.1 ± 0.41 µM and the “Inhibitory effect on ACE (in words)” value is “moderate inhibitory effects”.
As for `O=C(O)c1ccc(O)cc1` [Compound 6, para-hydroxy benzoic acid], the 50% inhibitory concentration (IC50) in assay [2] is 492.4 ± 0.89 µM.
For the molecule `CC(C)c1cc2cc3ccc(=O)oc3cc2o1` [Compound 8, 2′-isopropyl psoralene], in assay [2], 311.1 ± 0.33 µM corresponded to half-maximal inhibition (IC50) and the “Inhibitory effect on ACE (in words)” value is reported as “weak activity”.
In assay [2], `C/C=C(\C)C(=O)O[C@@H]1c2c(ccc3ccc(=O)oc23)OC(C)(C)[C@@H]1OC(C)=O` [Compound 9, 3′(R)-O-acetyl-4′(S)-O-tigloylkhellactone] displayed a half-inhibitory concentration (IC50) of 89.36 ± 0.38 µM.
With `C/C=C(/C)C(=O)O[C@@H]1c2c(ccc3ccc(=O)oc23)OC(C)(C)[C@@H]1OC(C)=O` [Compound 10, cis-3′-acetyl-4′-angeloylkhellactone], in assay [2], the half-maximal inhibitory concentration (IC50) amounted to 71.48 ± 0.47 µM.
`CC1(C)Oc2cc3oc(=O)ccc3cc2C[C@@H]1O` [Compound 11, decursinol] showed a half-maximal inhibitory concentration (IC50) in assay [2] of 18.3 ± 0.61 µM.
In assay [2], `C/C=C(/C)C(=O)O[C@H]1[C@H](O)c2cc3ccc(=O)oc3cc2OC1(C)C` [Compound 12, 4′-hydroxy Pd-C-III] yielded an IC50 of 9.41 ± 0.69 µM. In addition, in assay [3], the “Type of Inhibition” value was “competitive inhibition” and the Ki stood at 1.98 µM.
On the same counts, the results for `CC(C)=CC(=O)O[C@H]1[C@H](O)c2cc3ccc(=O)oc3cc2OC1(C)C` [Compound 13, Pd-C-I] are 6.75 ± 0.43 µM, “competitive inhibition” and 2.35 µM.
In assay [2], `CC(C)=CC(=O)O[C@@H]1c2cc3ccc(=O)oc3cc2OC(C)(C)[C@H]1OC(=O)C=C(C)C` [Compound 14, decursidin] gave an IC50 of 20 ± 0.79 µM.
The molecule `CC1(C)Oc2cc3oc(=O)ccc3cc2[C@@H](O)[C@@H]1O` [Compound 15, (+)-trans-decursidinol] returned an IC50 in assay [2] of 4.68 ± 0.22 µM. In addition, in assay [3], the “Type of Inhibition” value is “competitive inhibition” and the Ki was found to be 0.59 µM.
On to `CC(C)=CC(=O)O[C@@H]1c2cc3ccc(=O)oc3cc2OC(C)(C)[C@H]1O` [Compound 16, Pd-C-II], for which, in assay [2], the midpoint of inhibition, the IC50, lay at 12.4 ± 0.27 µM.
`C/C=C(/C)C(=O)O[C@H]1[C@H](OC(C)=O)c2cc3ccc(=O)oc3cc2OC1(C)C` [Compound 17, Pd-C-III] yielded an IC50 in assay [2] of 15.2 ± 0.39 µM.
The molecule `CO[C@@H]1c2cc3ccc(=O)oc3cc2OC(C)(C)[C@H]1OC(=O)C=C(C)C` [Compound 18, 4′-methoxy Pd-C-I] yielded an IC50 in assay [2] of 16 ± 0.92 µM.
